Measured values from ChEMBL document CHEMBL3856205, “Synthesis and biological evaluation of novel 4-hydroxytamoxifen analogs as estrogen-related receptor gamma inverse agonists” (Eur J Med Chem, 2016).

These molecules were tested against T1, Estrogen-related receptor gamma (Homo sapiens, UniProt P62508).
T1 sequence (P62508 whole entry): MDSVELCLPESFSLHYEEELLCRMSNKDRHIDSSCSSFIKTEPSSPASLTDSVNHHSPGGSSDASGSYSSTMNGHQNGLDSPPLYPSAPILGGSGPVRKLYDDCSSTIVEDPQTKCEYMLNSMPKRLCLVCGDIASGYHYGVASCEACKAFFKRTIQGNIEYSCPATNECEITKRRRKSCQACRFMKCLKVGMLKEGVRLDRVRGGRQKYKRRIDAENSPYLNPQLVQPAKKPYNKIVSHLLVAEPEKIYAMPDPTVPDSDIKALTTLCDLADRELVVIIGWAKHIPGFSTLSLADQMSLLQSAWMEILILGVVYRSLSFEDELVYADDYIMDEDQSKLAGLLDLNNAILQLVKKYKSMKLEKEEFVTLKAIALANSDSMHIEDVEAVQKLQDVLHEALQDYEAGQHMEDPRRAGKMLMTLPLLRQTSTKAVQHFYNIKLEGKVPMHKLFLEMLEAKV
Description: Inhibition of fluorescien-conjugated coactivator PGC1a binding to GST-tagged human ERRgamma LBD after 1 hr by TR-FRET assay

| SMILES | IC50 [µM] |
| --- | --- |
| CN(C)CCOc1ccc(/C(=C(/CCCF)c2ccccc2)c2ccc(Br)cc2)cc1 | 0.48 |
| COc1ccc(/C(=C(\CCCO)c2ccccc2)c2ccc(OCCN(C)C)cc2)cc1 | 1 |
| CN(C)CCOc1ccc(/C(=C(/CCCO)c2ccccc2)c2cccnc2)cc1 | > 10 |
| CN(C)CCOc1ccc(/C(=C(/CCCO)c2ccccc2)c2ccc(C(F)(F)F)cc2)cc1 | 1.3 |
| Cc1ccc(/C(=C(\CCCO)c2ccc3cnn(C)c3c2)c2ccc(OCCN(C)C)cc2)cc1 | 5.6 |
| CN(C)CCOc1ccc(/C(=C(/CCCO)c2ccccc2)c2ccc(S(C)(=O)=O)cc2)cc1 | > 10 |
| CN(C)CCOc1ccc(/C(=C(/CCCO)c2cccnc2)c2ccccc2)cc1 | > 10 |
| CN(C)CCOc1ccc(/C(=C(/CCCO)c2ccccc2)c2ccc(F)cc2F)cc1 | 6.7 |
| Cc1ccc(/C(=C(\CCCO)c2cccnc2)c2ccc(OCCN(C)C)cc2)cc1 | > 10 |
| CN(C)CCOc1ccc(/C(=C(/CCCO)c2ccccc2)c2ccc(Cl)cc2)cc1 | 0.52 |
| COc1ccc(/C(=C(\CCCO)c2ccc3cnn(C)c3c2)c2ccc(OCCN(C)C)cc2)cc1 | > 10 |
| CN(C)CCOc1ccc(/C(=C(/CCCO)c2cccnc2)c2ccc(Br)cc2)cc1 | > 10 |
| CN(C)CCOc1ccc(/C(=C(/CCCO)c2ccc3cnn(C)c3c2)c2ccc(Br)cc2)cc1 | 5.3 |
| CN(C)CCOc1ccc(/C(=C(/CCCO)c2cccc(F)c2)c2ccc(Br)cc2)cc1 | 1.1 |
| CN(C)CCOc1ccc(/C(=C(/CCCO)c2ccccc2)c2ccc(C#N)cc2)cc1 | > 10 |
| CN(C)CCOc1ccc(/C(=C(/CCC(F)F)c2ccccc2)c2ccc(Br)cc2)cc1 | 0.89 |
| CN(C)CCOc1ccc(/C(=C(/CCCO)c2ccccc2)c2ccc(F)cc2)cc1 | 3.9 |
| CN(C)CCOc1ccc(/C(=C(/CCCO)c2ccccc2)c2ccncc2)cc1 | > 10 |
| Cc1ccc(/C(=C(\CCCO)c2cccc(F)c2)c2ccc(OCCN(C)C)cc2)cc1 | 0.5 |
| CN(C)CCOc1ccc(/C(=C(/CCCO)c2ccccc2)c2ccccc2)cc1 | 1.5 |
